pIC50: −log10 of the molar value.
Key:
[1] = tested on: GPI-proteins 5′-Nuc, Gce1 and aP in isolated rat adipocytes; experiment: localization of lipolytically cleaved and uncleaved GPI-proteins at hcDIGs, IcDIGs and total plasma membranes (TX-114 partitioning); type: cell-based
PI-PLC (B. cereus) = molecular target: T1, PI-PLC (B. cereus) (Bacillus cereus, UniProt P14262); experiment: PI-PLC (B. cereus) assay, AChE substrate, TX-114 partitioning; type: biochemical
T1 construct: purchased SigmalAldrich (Deisenhofen, Germany)
T1 sequence (P14262 32-329 limits assumed): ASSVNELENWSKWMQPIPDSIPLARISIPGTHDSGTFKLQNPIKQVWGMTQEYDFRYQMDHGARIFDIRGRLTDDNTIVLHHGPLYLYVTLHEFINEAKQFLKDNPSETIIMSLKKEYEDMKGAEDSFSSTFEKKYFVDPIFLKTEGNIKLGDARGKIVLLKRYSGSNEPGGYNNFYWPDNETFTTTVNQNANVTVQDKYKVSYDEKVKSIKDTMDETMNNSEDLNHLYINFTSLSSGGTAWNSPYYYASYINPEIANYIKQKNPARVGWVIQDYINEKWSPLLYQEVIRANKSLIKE
Experimental: GPI-PLD (rat serum) was assayed according to “Hari et al. (1997) Biochim. Biophys. Acta 1355: 293-302” by incubation with 10 μl of human placental aP solution (100 U/ml in 10 mM Hepes/NaOH, pH 7.0, 150 mM NaCl) in 100 μl of 200 mM Tris/maleate (pH 7.0) and 1% Nonidet P-40 for 10 min at 37° C. and subsequent termination of the reaction by addition of 0.4 ml of ice-cold stop buffer (10 mM Hepes/NaOH, pH 7.0, 150 mM NaCl, 0.1 mM MgCl2 and 0.01 mM zinc acetate). GPI-PLC (T. brucei) was assayed as described in “Mensa-Wilmot et al. (1995) Methods Enzymol. 250: 641-655” by incubation with 5 μl of human placental aP solution (see above) in 50 μl of 50 mM Tris/HCl (pH 8.0), 0.25% Nonidet P-40 and 5 mM EDTA for 30 min at 37° C. and subsequent termination of the reaction by addition of 0.45 ml of stop buffer. PI-PLC (B. cereus) and adipocyte GPI-PLC (5-25 μg plasma membranes or hc/lcDIGs) were assayed by incubation with 10 μl of bovine erythrocyte acetylcholinesterase (AChE) solution (12 U/ml in 10 mM Tris/HCl, pH 7.4, 144 mM NaCl, 0.1% TX-100) in 100 μl of 20 mM Hepes/KOH (pH 7.8), 144 mM NaCl, 0.1% TX-100, 0.2 mM MgCl2 for 1 h at 25° C. and subsequent termination by adding 5 μl of glacial acetic acid and then 0.4 ml of 10 mM Tris/HCl (pH 7.4), 144 mM NaCl. Each reaction mixture was subjected to TX-114 partitioning (see below).
Pelleted hc/lcDIGs (10-50 μg protein) or (G)PI-PLC reaction mixtures (0.5 ml) were separated into amphiphilic and hydrophilic proteins using partitioning between TX-114-enriched and depleted phases according to “Bordier, C., (1981) J. Biol, Chem. […]” by suspending in 1 ml of ice-cold TX-114 (1%), 25 mM Tris/HCl (pH 7.4), 144 mM NaCl or mixing with 0.5 ml of ice-cold TX-114 (2%), respectively. After incubation for 1 h on ice, the mixture was layered onto a cushion of 0.4 ml of 0.25 M sucrose and 25 mM Tris/HCl (pH 7.4) on ice. Phase separation was induced by warming up to 37° C. and subsequent centrifugation (10,000×g, 1 min). After re-extraction of the lower TX-114-enriched phase, aliquots of the pooled upper TX-114-depleted phase were measured for 5′-Nuc, aP and AChE activity or precipitated (15 polyethylene glycol 4000) for SDS-PAGE analysis.
Table 1: GPI-PLC of hcDIGs from rat adipocytes, GPI-PLC from T. brucei and PI-PLC from B. cereus were incubated with solubilized and partially purified bovine erythrocyte AChE or human placental aP in the absence or presence of increasing concentrations (0.05 μM-1 mM) of the inhibitors indicated under appropriate conditions (see Materials and Methods). Cleavage rate was calculated from the amount of hydrophilic AChE and aP activity recovered with the TX-114-depleted phase upon TX-114 partitioning. Means+SD from at least 3 independent incubations with partitioning/enzyme assays in quadruplicate are given. n.a., not applicable.
Purified (G)PI-PLC/D from B. cereus, rat serum and T. brucei as well as total plasma membranes (PM) and hc/lcDIGs prepared from isolated rat adipocytes were incubated (10 min, 30° C.) with increasing concentrations of GPI-2350 and then assayed for amphiphilic-to-hydrophilic conversion of AChE and aP by TX-114 partitioning (see Materials and Methods). The lipolytic activity was calculated as % of the control reaction in the absence of GPI-2350 (set at 100%). Means+SD of at least 4 independent incubations with AChE and aP activity measurements in triplicate each are given.

[2] = amphiphilic version in hcDIGs of basal adipocytes set at 100, GPI-2350 50 μM, insulin 10 nM, glimepiride 20 μM

CCCCCCCCCCCCP1(=O)O[C@@H]2[C@H](O)[C@@H](O)[C@H](O)[C@@H](O)[C@@H]2O1 (stereo partly shown) [GPI-2350, myo-inositol-1,2-cyclo-dodecylphosphonic acid]
effect on insulin/glimepiride-induced increase in hydrophilic GPI-proteins in plasma membranes ([1]; 50 μM): completely blocked
aP hydroph. IcDIGs [1, 2]: 2 ± 2 arb. units
aP hydroph. hcDIGs [1, 2]: 10 ± 1 arb. units
pIC50 (PI-PLC (B. cereus); IC50, Table 1, inhibitor 0.05 μM-1 mM): 4.70 to 5.00
pIC50 (PI-PLC (B. cereus); apparent IC50, FIG. 2): 5.00
inhibition at 1000 µM (PI-PLC (B. cereus); read-out: inhibition % at 1 mM): 75%
reversal of half-maximal inhibition (PI-PLC (B. cereus); upon 10-fold dilution with excess of fresh GPI-protein substrate): completely reversed

Source: patent US8017350B2, “Glimepiride- and insulin-induced glycosylphosphatidylinositol-specific phospholipase C regulation” (Sanofi-Aventis Deutschland GmbH, priority 2004, dated 2011)
